Assays:
Assay type in all cases: functional, cell-based
Conditions in all cases: mcf7r
[1] = target: T1, ATP-dependent translocase ABCB1 (Homo sapiens, UniProt P08183); test: TP_TRANSPORTER: efflux of 3uM mitoxantrone in the presence of tRA96023 at a concentration of 10uM in MCF7/R cells
[2] = target: T1, ATP-dependent translocase ABCB1; test: TP_TRANSPORTER: efflux of 3uM mitoxantrone by Fumitremorgin C at 10uM in MCF7/R cells
[3] = target: T1, ATP-dependent translocase ABCB1; test: TP_TRANSPORTER: efflux of mitoxantrone (Mitoxantrone: 3uM) in the presence of Ortataxel at a concentration of 10uM in MCF7/R cells
[4] = target: T1, ATP-dependent translocase ABCB1; test: TP_TRANSPORTER: efflux of 3uM mitoxantrone in the presence of Probenecid at 1mM in MCF7/R cells
[5] = target: T1, ATP-dependent translocase ABCB1; test: TP_TRANSPORTER: efflux of 3uM mitoxantrone in the presence of PSC-833 (Valspodar) at a concentration of 2.5uM in MCF7/R cells

T1 sequence (P08183 whole entry): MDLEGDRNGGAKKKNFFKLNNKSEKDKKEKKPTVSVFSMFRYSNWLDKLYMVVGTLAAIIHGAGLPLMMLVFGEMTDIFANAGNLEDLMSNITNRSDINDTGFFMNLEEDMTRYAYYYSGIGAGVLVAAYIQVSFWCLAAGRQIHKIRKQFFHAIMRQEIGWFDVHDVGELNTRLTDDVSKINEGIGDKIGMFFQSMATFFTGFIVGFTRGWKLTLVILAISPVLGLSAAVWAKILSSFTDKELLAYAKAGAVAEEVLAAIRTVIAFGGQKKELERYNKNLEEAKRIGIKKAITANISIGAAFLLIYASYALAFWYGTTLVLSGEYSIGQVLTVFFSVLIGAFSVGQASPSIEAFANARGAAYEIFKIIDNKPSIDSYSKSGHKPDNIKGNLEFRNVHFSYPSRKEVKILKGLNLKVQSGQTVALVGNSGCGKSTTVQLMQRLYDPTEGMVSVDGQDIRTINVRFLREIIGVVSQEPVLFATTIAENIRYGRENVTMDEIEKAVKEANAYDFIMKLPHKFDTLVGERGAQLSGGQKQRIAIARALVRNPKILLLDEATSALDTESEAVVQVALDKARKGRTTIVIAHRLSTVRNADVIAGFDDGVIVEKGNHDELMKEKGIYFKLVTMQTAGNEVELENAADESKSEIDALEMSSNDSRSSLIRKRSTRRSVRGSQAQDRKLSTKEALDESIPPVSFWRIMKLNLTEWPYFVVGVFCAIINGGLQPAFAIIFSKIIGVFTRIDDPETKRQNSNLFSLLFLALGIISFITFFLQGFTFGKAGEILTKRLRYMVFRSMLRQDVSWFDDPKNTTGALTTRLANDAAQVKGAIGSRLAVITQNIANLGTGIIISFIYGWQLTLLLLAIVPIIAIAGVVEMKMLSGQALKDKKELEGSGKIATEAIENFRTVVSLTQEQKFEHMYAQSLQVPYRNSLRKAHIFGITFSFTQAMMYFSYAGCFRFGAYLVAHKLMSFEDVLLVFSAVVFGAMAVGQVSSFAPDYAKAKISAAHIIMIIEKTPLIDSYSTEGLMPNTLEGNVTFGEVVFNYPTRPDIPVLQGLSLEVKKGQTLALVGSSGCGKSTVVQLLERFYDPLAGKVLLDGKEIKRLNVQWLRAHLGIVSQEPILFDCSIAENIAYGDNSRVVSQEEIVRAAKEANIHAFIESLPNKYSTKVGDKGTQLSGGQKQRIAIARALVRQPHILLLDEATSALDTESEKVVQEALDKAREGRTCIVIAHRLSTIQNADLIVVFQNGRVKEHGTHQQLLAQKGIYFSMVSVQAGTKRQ

Compound: CC(=O)O[C@H]1C(=O)[C@@]2(C)C([C@H](OCc3ccccc3)C3(O)C[C@H](OC(C)=O)C(C)=C1C3(C)C)[C@]1(OC(C)=O)CO[C@@H]1C[C@@H]2OC(=O)/C=C/c1ccc(C(=O)c2ccccc2)cc1 (stereo not given in full)
- Activity [1]: inhibitor [+]

Compound: COc1ccc2c3c([nH]c2c1)[C@H](C=C(C)C)N1C(=O)[C@@H]2CCCN2C(=O)[C@@H]1C3 [FUMITREMORGIN]
- Activity [2]: is not an inhibitor [-]

Compound: CC(=O)O[C@H]1C(=O)[C@@]2(C)[C@H]([C@H](OC(=O)c3ccccc3)[C@]34OC(=O)O[C@H]3[C@H](OC(=O)[C@H](O)[C@H](CC(C)C)NC(=O)OC(C)(C)C)C(C)=C1C4(C)C)[C@]1(OC(C)=O)CO[C@@H]1C[C@@H]2O [ORTATAXEL]
- Activity [3]: inhibitor [+]

Compound: CCCN(CCC)S(=O)(=O)c1ccc(C(=O)O)cc1 [PROBENECID]
- Activity [4]: is not an inhibitor [-]

Compound: C/C=C/C[C@@H](C)C(=O)[C@H]1C(=O)N[C@@H](C(C)C)C(=O)N(C)CC(=O)N(C)[C@@H](CC(C)C)C(=O)N[C@@H](C(C)C)C(=O)N(C)[C@@H](CC(C)C)C(=O)N[C@@H](C)C(=O)N[C@H](C)C(=O)N(C)[C@@H](CC(C)C)C(=O)N(C)[C@@H](CC(C)C)C(=O)N(C)[C@@H](C(C)C)C(=O)N1C [VALSPODAR]
- Activity [5]: inhibitor [+]
